Laboratory results taken from patent US4650804A, “Quinolizinone compounds and pharmaceutical composition comprising the same, useful as anti-ulcerative and anti-allergic agents” (Fujisawa Pharmaceutical Co., Ltd., priority 1984, dated 1987).
“And” between values parts separate entries of the source, which are not always exact repeats. Equal entries are not always repeated.

How the values were obtained:
[1] = Effect on passive cutaneous anaphylaxis (PCA); assay type: in vivo, female Sprague-Dawley rats; conditions: intravenously with the antigen
Procedure: (B) Effect on passive cutaneous anaphylaxis (pCA).
Recipient animals for PCA reactions were female Sprague-Dawley rats, 7 weeks old, 180 g-200 g (Nihon Kurea). Each experiment included 5 observations.
Five times crystallized ovalbumin (OVA) (Sigma Lot, 31F-8061) was used as antigen.
Female BDFl mice, 7 weeks old (Nihon Kurea), were given a primary injection (left foot pad, s.c.) of 100 mcg OVA in 0.05 ml saline and after 20 days a booster injection by the same route. Blood was collected 28 days after the primary injection and the sera were stored at -80° C.
The animals were shared with an electric clipper in advance and prepared for Passive Cutaneous Anaphylaxis (PCA) by injecting 0.05 ml of mouse antiserum dilutions (1/16, 1/32) in each side of the dorsal skin.
They were then challenged 48 hours later with an intravenous injection of 1 ml of 0.5% Evans Blue containing 5 mg OVA. Fifty minutes later, they were killed and the lesions (diameter) measured.
A minimal skin response was one with a 5 mm or greater diameter blue spot measured on the dermal side of reflected skin. Drug activity was estimated using the following formula; [formula]
Drugs were suspended in 0.1% methyl cellulose/saline and given intravenously with the antigen.

[2] = Inhibition on stress ulcer; assay type: in vivo, Sprague-Dawley rats; conditions: 32 mg/kg, oral, 22° C. water bath, 7 hours; for Ulcer index Mean ± S. E. / Ulcer index (individual animals): just before immobilization; for Ulcer index Mean ± S. E.: 5 animals; for Ulcer index (individual animals): single animals No. 1-5; for Inh. %: ulcer index inhibition vs control
Procedure: (A) Inhibition on stress ulcer
Sprague-Dawley rats weighing about 200 g were used. Each animal was immobilized in a small cage and put in a water bath allowing to respire. The temperature of the water bath kept at 22° C. The test compound .circle.A and .circle.B were administered orally just before the immobilization. Seven hours later, the animals were sacrificed and their stomachs were removed. The stomach was then fixed with 2% formalin. The area of ulcers was measured for each animal. The mean area (mm^2) in the test animals was compared with that in the control animals.

In the case of O=C(Nc1nn[nH]n1)c1ccc2ccccn2c1=O [Compound .circle.A, N-[5-(1H-Tetrazolyl)]-4H-quinolizin-4-one-3-carboxamide], the “Inhibition (%)” value ([1]; 1 mg/kg, Antiserum concentration 1/16) was 97.2%, the “Inhibition (%)” value ([1]; 1 mg/kg, Antiserum concentration 1/32) was 100% and the “Inhibition (%)” value ([1]; 10 mg/kg, Antiserum concentration 1/16) was 94.5%. The “Inhibition (%)” value ([1]; 10 mg/kg, Antiserum concentration 1/32) was 100%, the “Ulcer index Mean ± S. E.” value [2] was 6.2 ± 3.0 mm^2 and the “Ulcer index (individual animals)” value [2] was 18 mm^2 and 5 mm^2 and 3 mm^2 and 4 mm^2 and 1 mm^2. It also gave an Inh. % [2] of 67.7%.
For O=C(Nc1nn[nH]n1)c1cc(-c2ccccc2)c2ccccn2c1=O [Compound .circle.B, N-[5-(1H-Tetrazolyl)]-1-phenyl-4H-quinolizin-4-one-3-carboxamide], the “Ulcer index Mean ± S. E.” value [2] was 8.4 ± 1.9 mm^2, the “Ulcer index (individual animals)” value [2] was 10 mm^2 and 11 mm^2 and 3 mm^2 and 5 mm^2 and the Inh. % [2] was 83.7%.
